Experimental data published in patent US6558951B1, “Maturation of dendritic cells with immune response modifying compounds” (3M Innovative Properties Company, priority 1999, dated 2003).

Assays:
Type in all cases: cell-based, human
[1] = test system: monocyte-derived dendritic cells (MO-DC); test: MO-DC cell surface maturation marker expression by flow cytometry
Procedure: Generation of Monocyte-Derived Dendritic Cells (MO-DC). […] CD14^+ cells were purified by positive selection using CD14^+ microbeads in conjunction with the MiniMACS system (Miltenyi Biotech, Auborn, Calif.) by following the manufacturer's instructions. […] Fresh medium containing GM-CSF and IL-4 was added every three days. MO-DC were routinely used between days 7 and 8 of culture. As a control, depleted lymphocytes were cultured in the same fashion. In Vitro MO-DC Stimulation. […] Cells were subsequently analyzed by flow cytometry for the expression of various cell surface markers, and the cell culture supernatants were analyzed for various cytokines and chemokines by ELISA. Cell Surface and Intracellular Flow Cytometry. […] Cells (5-10^5) were incubated for 15 minutes incubation at 4° C. with purified IgD (Becton Dickinson) to block non-specific binding, and then the cells were stained for 30 minutes with the antibodies at 4° C. in PBS containing 10% FCS and 0.1% sodium azide. After washing in PBS, the cells were analyzed using a FACScan flow cytometer and Cell Quest software (Becton Dickinson).

[2] = test system: syngeneic CD3-enriched peripheral blood T cells; test: Autologous T cell activation by treated MO-DC (anamnestic response to tetanus toxoid)
Procedure: Autologous T Cell Activation. Autologous T cells and R-848-treated MO-DC were prepared as described for allogeneic T cell stimulation. MO-DC were cultured with R-848 [2 μg/ml] and tetanus toxoid [10 μg/ml] for 24 hours. The MO-DC were washed and cultured at graded doses with PBMC-derived CD3^+ T cells for 7 days. Cell proliferation and analysis were determined as described. Supernatants were also collected; from the same cultures prior to pulsing with [^3H]TdR and analyzed for IFN-γ and IL-5.
Cytokine Analysis. Cytokine levels were measured by ELISA. Human TNF-α, IL-12 (p40/p70), IFNγ, IL-4 and IL-2 kits were purchased from Genzyme (Cambridge, Mass.). Human IL-6 kits were obtained from Biosource International (Camarillo, Calif.). Human IL-5, IL-8, MIP-1α, MCP-1 and RANTES were purchased from R&D Systems. All ELISA were run according to manufacturer's specifications. IFN levels were; measured by bioassay (40). IFN-α and IFN-β specific antibodies were used to determine which type I IFN was present in the MO-DC supernatants. Results for all ELISAs are presented in pg/ml, whereas IFN results are presented in U/ml.

allogeneic T cells = test: Allogeneic lymphocyte activation (primary MLR) by treated MO-DC: T cell proliferation and cytokines
Procedure: Allogeneic Lymphocyte Activation. T-cells were isolated using T-Cell Purification Columns according to manufacturer's specifications (R&D Systems, Minneapolis, Minn). […] Dendritic cells were subsequently washed, resuspended in cRPMI and added at various concentrations (1-32×10^3 per well) to purified responder T-cells (1×10^5 per well) in 96-well flat-bottomed microtiter plates (BD Labware) in a total volume of 200 μl. […] Each well received 1 μCi [^3H]TdR and was harvested 18 hours later. Results are presented as mean CPM±SEM of triplicate wells. […] Cytokine Analysis. Cytokine levels were measured by ELISA. […] Human IL-6 kits were obtained from Biosource International (Camarillo, Calif.). Human IL-5, IL-8, MIP-1α, MCP-1 and RANTES were purchased from R&D Systems. All ELISA were run according to manufacturer's specifications. […] IFN-α and IFN-β specific antibodies were used to determine which type I IFN was present in the MO-DC supernatants. Results for all ELISAs are presented in pg/ml, whereas IFN results are presented in U/ml.

[3] = test system: monocyte-derived dendritic cells (MO-DC); test: MO-DC cytokine and chemokine secretion (ELISA or bioassay of culture supernatants); settings: for IFN-α: bioassay; for IFN-α / IL-6 / IL-8 / IL-12 / MCP-1 / MIP-1α / TNF-α: mean ± SEM
Procedure: Generation of Monocyte-Derived Dendritic Cells (MO-DC). PBMC were isolated with Histopaque HybriMax-1077 density gradient (Sigma) from healthy volunteers after obtaining informed consent. CD14^+ cells were purified by positive selection using CD14^+ microbeads in conjunction with the MiniMACS system (Miltenyi Biotech, Auborn, Calif.) by following the manufacturer's instructions. Purity, as assessed by flow cytometry, was greater than 90%. […] Fresh medium containing GM-CSF and IL-4 was added every three days. MO-DC were routinely used between days 7 and 8 of culture. As a control, depleted lymphocytes were cultured in the same fashion. In Vitro MO-DC Stimulation. […] Cells were subsequently analyzed by flow cytometry for the expression of various cell surface markers, and the cell culture supernatants were analyzed for various cytokines and chemokines by ELISA. Cytokine Analysis. Cytokine levels were measured by ELISA. […] Human IL-6 kits were obtained from Biosource International (Camarillo, Calif.). Human IL-5, IL-8, MIP-1α, MCP-1 and RANTES were purchased from R&D Systems. All ELISA were run according to manufacturer's specifications. […] IFN-α and IFN-β specific antibodies were used to determine which type I IFN was present in the MO-DC supernatants. Results for all ELISAs are presented in pg/ml, whereas IFN results are presented in U/ml.

[4] = 0.1 μg/ml, 24 hours, vs vehicle
[5] = MO-DC treated with 2 μg/ml and 10 μg/ml tetanus toxoid 24 hours, 7 days co-culture
[6] = MO-DC treated with 2 and 8 μg/ml, MLR supernatants, 96 hours
[7] = 0.1 μg/ml, 24 hours, MO-DC supernatant
[8] = 0.4 μg/ml, 24 hours, MO-DC supernatant
[9] = 2.0 μg/ml, 24 hours, MO-DC supernatant
[10] = 8.0 μg/ml, 24 hours, MO-DC supernatant
[11] = treatment time 1 hr, 2 μg/ml R-848 or 1 μg/ml LPS
[12] = treatment time 6 hr, 2 μg/ml R-848 or 1 μg/ml LPS
[13] = treatment time 24 hr, 2 μg/ml R-848 or 1 μg/ml LPS

`CCOCc1nc2c(N)nc3ccccc3c2n1CC(C)(C)O` [R-848, 4-amino-2-ethoxymethyl-α,α-dimethyl-1H-imidazo [4,5-c]quinoline-1-ethanol] was tested, and the “CD83 cell surface expression” value [1, 4] was “no increase”, the “CD86 cell surface expression” value [1, 4] was “no increase” and the “increase in CD40 expression over vehicle treated MO-DC” value ([1]; 2 μg/ml, 24 hours) was 2 fold. The “increase in CD80 expression over vehicle treated MO-DC” value ([1]; 2 μg/ml, 24 hours) was 2 fold, the “maximal average increase in CD80 expression (MFI)” value ([1]; 2 μg/ml, 24 hours) was 3- to 4 fold and the “maximal average increase in CD86 expression (MFI)” value ([1]; 2 μg/ml, 24 hours) was 3- to 4 fold. The “decrease in CD1a expression” value ([1]; 2 μg/ml, 24 hours, vs vehicle) was “not statistically significant”, the “increase in cell surface HLA-DR expression” value ([1]; 2 μg/ml, 24 hours, vs vehicle) was “not quantitatively significant” and the “culture time giving maximal DC maturation marker expression” value ([1]; 2 μg/ml, 24, 48, 72 and 96 hour stimulation examined) was 24 h. For the same compound, the CD86 expression ([1]; 0.4, 2 and 8 μg/ml, 24 hours, vs vehicle) was “Enhanced”, the “cell surface expression of CD83” value ([1]; 2 and 8 μg/ml, 24 hours, vs vehicle) was “Enhanced” and the CD83 expression ([1]; pulsed 6 hours, stained immediately, 2 μg/ml R-848 or 1 μg/ml LPS) was “significant increase”. For the same compound, the “CD40, CD80, CD86 and HLA-DR expression” value ([1]; pulsed 6 hours, stained immediately, 2 μg/ml R-848 or 1 μg/ml LPS, vs medium control) was “not statistically significant”, the “CD83 and CD40 expression” value ([1]; pulsed 6 hours, washed, re-cultured 18 hours, 2 μg/ml R-848 or 1 μg/ml LPS) was “significant increase” and the “expression of CD83, CD80, CD86, CD40 or HLA-DR” value ([1]; pulsed one hour with 2 μg/ml R-848 or 1 μg/ml LPS, then stained) was “did not show enhanced expression”. For the same compound, the “expression of CD83, CD80, CD86, CD40 or HLA-DR” value ([1]; pulsed one hour, washed, re-cultured 23 hours, 2 μg/ml R-848 or 1 μg/ml LPS) was “did not show enhanced expression”, the “IFN-γ production vs MO-DC cultured only with tetanus toxoid antigen” value [2, 5] was 4- to 11 fold and the “increase of syngeneic T cell proliferation vs MO-DC not treated with R-848” value [2, 5] was 2to 3 fold. The “IL-5 in culture supernatants” value ([2]; MO-DC treated with 2 μg/ml and 10 μg/ml tetanus toxoid, autologous MO-DC/T cell system) was “not detected”, the “allogeneic T cell proliferation vs untreated MO-DC” value (allogeneic T cells; MO-DC treated for 6 hours) was “significantly enhanced” and the “allogeneic T cell proliferation vs untreated MO-DC” value (allogeneic T cells; MO-DC treated for less than 6 hours) was “not significantly increased”. For the same compound, the “enhancement of IFN-γ production vs untreated MO-DC cultures” value (allogeneic T cells; [6]) was 2- to 3 fold, the “enhancement of IL-2 production vs untreated MO-DC cultures” value (allogeneic T cells; [6]) was 2- to 3 fold and the “enhancement of IL-5 production vs untreated MO-DC cultures” value (allogeneic T cells; [6]) was 2- to 3 fold. For the same compound, the “IL-2, IL-5 or IFN-γ production by T cells” value (allogeneic T cells; T cells cultured in the presence of compound, without added MO-DC) was “do not produce”, the IFN-α [3, 7] was 8 ± 3 U/ml and the IL-6 [3, 7] was 20 ± 12 pg/mL. It also gave an IL-8 [3, 7] of 425 ± 132 pg/mL, an IL-12 [3, 7] of 70 ± 21 pg/mL and an MCP-1 [3, 7] of 3603 ± 2158 pg/mL. It also gave an MIP-1α [3, 7] of 57 ± 57 pg/mL, a TNF-α [3, 7] of 6 ± 3 pg/mL and an IFN-α [3, 8] of 8 ± 3 U/ml. It also gave an IL-6 [3, 8] of 399 ± 208 pg/mL, an IL-8 [3, 8] of 5125 ± 2430 pg/mL and an IL-12 [3, 8] of 106 ± 27 pg/mL. The MCP-1 [3, 8] was 4864 ± 2213 pg/mL, the MIP-1α [3, 8] was 511 ± 314 pg/mL and the TNF-α [3, 8] was 14 ± 4 pg/mL. The “stimulation time for maximal IL-12 secretion” value ([3]; 2 μg/ml R-848 or 1 μg/ml LPS) was “between six and twenty four hours”, the “stimulation time for maximal TNF-α secretion” value ([3]; 2 μg/ml R-848 or 1 μg/ml LPS) was “between one and six hours” and the IFN-α [3, 9] was 27 ± 7 U/ml. The IL-6 [3, 9] was 6729 ± 1888 pg/mL, the IL-8 [3, 9] was 50092 ± 10385 pg/mL and the IL-12 [3, 9] was 15984 ± 3860 pg/mL. It also gave an MCP-1 [3, 9] of 12941 ± 5802 pg/mL, an MIP-1α [3, 9] of 15412 ± 5244 pg/mL and a TNF-α [3, 9] of 1540 ± 371 pg/mL. For the same compound, the IFN-α [3, 10] was 41 ± 12 U/ml, the IL-6 [3, 10] was 9690 ± 1269 pg/mL and the IL-8 [3, 10] was 66988 ± 11863 pg/mL. For the same compound, the IL-12 [3, 10] was 19640 ± 3966 pg/mL, the MCP-1 [3, 10] was 16249 ± 7661 pg/mL and the MIP-1α [3, 10] was 25956 ± 5782 pg/mL. For the same compound, the TNF-α [3, 10] was 2208 ± 240 pg/mL, the “inhibition of induced IFN bioactivity by neutralizing IFN-α” value ([3]; MO-DC supernatants, IFN bioassay) was “greater than 95%” and the IL-12 [3, 11] was 65 ± 18 pg/mL. It also gave a TNF-α [3, 11] of 32 ± 10 pg/mL, an IL-12 [3, 12] of 4446 ± 2438 pg/mL and a TNF-α [3, 12] of 1053 ± 707 pg/mL. For the same compound, the IL-12 [3, 13] was 13153 ± 5484 pg/mL and the TNF-α [3, 13] was 335 ± 201 pg/mL.
